According to US9737558B2, “Peyer's patch activator” (priority 2012, dated 2017):

Key:
[1] = system: IL-6 production in mouse Peyer's patch cells; test: IL-6 production induction test in Peyer's patch cell culture (ELISA); type: cell-based, C3H/HeJ mouse; conditions: Example 2, FIG. 4; sample untreated, versus control
Method: To a 25 mM acetate buffer (pH 4.5, 1 mg/mL) solution of the α-glucan fraction (1.5 mg) or the heteroglycan fraction (1.5 mg) were added exo-α-L-arabinofuranosidase (20 μL), exo-β-D-(1→3)-galactanase (20 μL), and endo-β-D-(1→4)-galactanase (5 μL), followed by enzyme reaction under conditions of 37° C. for 2 days. The obtained digest was heat-treated for 30 seconds in a boiling water bath to deactivate the enzyme. To a half of this enzyme reaction liquid (shown as “1,3/1,4-galactanase” in FIG. 4) was further added dextranase (0.25 units), followed by incubation for 2 days at 37° C., and subsequently, the enzyme was deactivated under the same conditions as the above to obtain an enzyme reaction liquid (shown as “dextranase” in FIG. 4). These reaction liquids were preserved at −20° C. until use. Preparation and culture of mouse Peyer's patch cells were performed in the same manner as in Test Example 1. An anti-mouse IL-6 primary antibody diluted to 1 μg/mL with a 50 mM carbonate-bicarbonate buffer (pH 9.6) (100 μL/well) was dispensed into an ELISA plate (Immuno-Maxisorp, Nunc) and incubated at 4° C. overnight. […] The developed yellow color was measured using a microplate reader (Multiskan JX, Thermo Electron Corp.) (measurement wavelength; 405 nm, blank wavelength; 492 nm).

[2] = system: Plasmodium yoelii NS (chloroquine-resistant strain); test: Oral administration test of polysaccharide fraction in combination with antimalarial agent in rodent malaria parasite (chloroquine-resistant strain) infection model; type: in vivo, Plasmodium yoelii NS in ICR mice; conditions: 2×10^4 infected erythrocytes; AN 3 mg/kg/day oral four times; SCE-4 600 mg/kg/day oral from 7 days before infection; versus control group (Dunnett's test)
Method: A procedure was performed in the same manner as in Example 4, except that the number of P. yoelii NS-infected erythrocytes intravenously injected to the tail vein was changed from 2×10^6 cells to 2×10^4 cells.
SCE-4 and AN were orally administered to ICR mice each day in a dose of 500 μL/mouse using a feeding needle. A dosage of SCE-4 was 600 mg/kg/day, and AN was dissolved in a 10% dimethylsulfoxide (DMSO) aqueous solution containing 0.5% Tween 80 and administered in a dosage of 3 mg/kg/day. The administration of SCE-4 was started 7 days before parasite infection and continued even after the plasmodium infection. The administration of AN was started 2 hours after the parasite infection and continued until Day 3 after the plasmodium infection (four times in total). In addition, SCE-4 was administered 3 hours or more after the administration of AN.
To a control group, water and a 10% DMSO aqueous solution containing 0.5% Tween 80 were orally administered, and to AN3 groups, water and a 10% DMSO aqueous solution of AN containing 0.5% Tween 80 were orally administered, and to SCE-4+AN3 groups, an SCE-4 aqueous solution and a 10% DMSO aqueous solution of AN containing 0.5% Tween 80 were orally administered.
Calculation was performed in the same manner as in Example 3.

| Compound | amount of IL-6 production [1] | infection rate of erythrocytes (Parasitemia), Day 4 and Day 5 [2] |
| --- | --- | --- |
| dextran | no change in the amount of IL-6 production was observed | – |
| C[C@H]1[C@H](OC(=O)CCC(=O)O)O[C@@H]2O[C@@]3(C)CC[C@H]4[C@H](C)CC[C@@H]1[C@@]24OO3 [AN, artesunate] | – | the infection rate significantly decreased on Day 4 and Day 5 as compared with the control group |
